This passage reports IC50 results from patent US9145392B2, “Imidazole amines as modulators of kinase activity” (Merck Patent GmbH, priority 2011, dated 2015).

In general, IC50 refers to the midpoint of a concentration-inhibition curve.

The target in one assay is P70S6K (T412E mutant) (Homo sapiens (Human), UniProt P23443, T412E). Nature of the assay: P70S6K enzyme assay. The format is biochemical. The settings on record: read-out: IC50 p70S6K. In outline: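 Read-out is the substrate/phosphopeptide ratio from mobility-shift electrophoresis on a LabChip 3000.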
Sequence of P70S6K (T412E mutant) (P23443 whole entry T412E): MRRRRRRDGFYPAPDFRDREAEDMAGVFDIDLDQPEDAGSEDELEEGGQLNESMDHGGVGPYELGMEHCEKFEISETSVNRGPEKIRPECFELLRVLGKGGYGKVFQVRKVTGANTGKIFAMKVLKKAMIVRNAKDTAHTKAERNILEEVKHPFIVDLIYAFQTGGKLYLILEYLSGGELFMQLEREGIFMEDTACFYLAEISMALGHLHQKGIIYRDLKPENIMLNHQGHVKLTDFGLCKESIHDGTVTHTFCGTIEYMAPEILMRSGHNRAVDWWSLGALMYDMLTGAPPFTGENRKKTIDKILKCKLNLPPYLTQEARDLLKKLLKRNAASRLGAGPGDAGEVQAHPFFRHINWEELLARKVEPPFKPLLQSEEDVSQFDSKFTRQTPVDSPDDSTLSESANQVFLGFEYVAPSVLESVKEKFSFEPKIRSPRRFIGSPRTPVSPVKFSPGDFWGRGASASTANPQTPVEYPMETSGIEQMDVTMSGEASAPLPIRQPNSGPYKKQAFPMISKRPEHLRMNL
The next assay addresses His-AKT (Full Length) (Homo sapiens (Human), UniProt P31749). The experiment in a line: AKT enzyme assay. The format is biochemical. The settings on record: read-out: IC50 AKT.

Sequence of His-AKT (Full Length) (P31749 whole entry): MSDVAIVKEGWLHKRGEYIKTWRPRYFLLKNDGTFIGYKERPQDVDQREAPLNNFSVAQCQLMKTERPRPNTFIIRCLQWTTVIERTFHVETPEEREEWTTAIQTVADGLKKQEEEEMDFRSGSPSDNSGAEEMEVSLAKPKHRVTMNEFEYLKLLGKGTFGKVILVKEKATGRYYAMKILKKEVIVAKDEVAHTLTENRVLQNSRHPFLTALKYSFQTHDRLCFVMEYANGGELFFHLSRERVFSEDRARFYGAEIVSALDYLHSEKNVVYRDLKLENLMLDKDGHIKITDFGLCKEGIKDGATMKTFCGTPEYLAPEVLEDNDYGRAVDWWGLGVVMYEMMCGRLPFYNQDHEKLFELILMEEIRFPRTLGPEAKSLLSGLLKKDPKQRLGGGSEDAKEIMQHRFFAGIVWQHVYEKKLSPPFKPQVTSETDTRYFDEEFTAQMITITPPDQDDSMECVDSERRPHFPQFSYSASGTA

On to `CCc1c(N)ncnc1N1CCC(c2nc(-c3ccc(C(F)(F)F)c(F)c3)cn2CCN2CC[C@H](F)C2)CC1` [Compound 245], for which the values for the IC50 at P70S6K (T412E mutant) and at His-AKT (Full Length) were 5.3 nM and 64 nM, respectively.
For the compound `CCc1c(N)ncnc1N1CCC(c2nc(-c3ccc(C(F)(F)F)c(F)c3)cn2CCN2CC[C@@H](F)C2)CC1` [Compound 246], the values for the IC50 on P70S6K (T412E mutant) and on His-AKT (Full Length) were 1.7 nM and 25 nM, respectively.
With `CCc1c(N)ncnc1N1CCC(c2nc(-c3ccc(C(F)(F)F)c(F)c3)cn2CCN2CCC(F)(F)CC2)CC1` [Compound 247], the figures for the IC50 at P70S6K (T412E mutant) and at His-AKT (Full Length) were 5.5 nM and 520 nM, respectively.
On to `CCc1c(N)ncnc1N1CCC(c2nc(-c3ccc(C(F)(F)F)c(F)c3)cn2CCN2CCCC(F)(F)C2)CC1` [Compound 248], for which the IC50 was found to be 16 nM at P70S6K (T412E mutant) and 1000 nM on His-AKT (Full Length).
In the case of `CCc1c(N)ncnc1N1CCC(c2nc(-c3ccc(C(F)(F)F)c(F)c3)cn2CCN2CCC(F)CC2)CC1` [Compound 249], the IC50 was determined as 10 nM on P70S6K (T412E mutant) and 86 nM at His-AKT (Full Length).
The corresponding values for `CCc1c(N)ncnc1N1CCC(c2nc(-c3ccc(C(F)(F)F)c(F)c3)cn2CCN2CCCC(F)C2)CC1` (centres unmarked) [Compound 250] are 5.7 nM and 210 nM.
Turning to `CCc1c(N)ncnc1N1CCC(c2nc(-c3ccc(Cl)c(F)c3)cn2CCN2CCCC2)CC1` [Compound 251], the IC50 is 2.6 nM at P70S6K (T412E mutant) and 76 nM at His-AKT (Full Length).
For `CCc1c(N)ncnc1N1CCC(c2nc(-c3ccc(F)c(Cl)c3)cn2CCN2CCCC2)CC1` [Compound 252], the half-inhibitory concentration (IC50) was determined as 0.2 nM on P70S6K (T412E mutant) and 0.4 nM at His-AKT (Full Length).
The corresponding values for `Nc1ncnc(N2CCC(c3nc(-c4ccc(C(F)(F)F)c(F)c4)cn3CCN3CCCCC3)CC2)c1C1CCC1` [Compound 253] are 19 nM and 28 nM.
Take `Nc1ncnc(N2CCC(c3nc(-c4ccc(C(F)(F)F)c(F)c4)cn3CCN3CCCC3)CC2)c1C1CCC1` [Compound 254]: the concentration for half-maximal inhibition (IC50) on P70S6K (T412E mutant) worked out at 8.1 nM; at His-AKT (Full Length), 9.1 nM.
In the case of `Nc1ncnc(N2CCC(c3nc(-c4ccc(F)c(F)c4)cn3CCN3CCCC3)CC2)c1C1CCC1` [Compound 255], the IC50 on P70S6K (T412E mutant) was determined as 6.9 nM; at His-AKT (Full Length) it was 9.4 nM.
As for `Nc1ncnc(N2CCC(c3nc(-c4ccc(F)cc4)cn3CCN3CCCC3)CC2)c1C1CCC1` [Compound 256], the IC50 stood at 6.5 nM at P70S6K (T412E mutant) and 11 nM on His-AKT (Full Length).
In the case of `Nc1ncnc(N2CCC(c3nc(-c4cccc(F)c4)cn3CCN3CCCC3)CC2)c1C1CCC1` [Compound 257], the IC50 was determined as 4 nM on P70S6K (T412E mutant) and 20 nM at His-AKT (Full Length).
The corresponding values for `Nc1ncnc(N2CCC(c3nc(-c4ccc(C(F)(F)F)c(F)c4)cn3CCN3CCCC3)CC2)c1C1CCC1` [Compound 258] are 36 nM and 380 nM.
The corresponding values for `Nc1ncnc(N2CCC(c3nc(-c4ccc(C(F)(F)F)cc4)cn3CCN3CCCC3)CC2)c1C1CCC1` [Compound 259] are 37 nM and 430 nM.
Take `Nc1ncnc(N2CCC(c3nc(-c4ccc(Cl)c(F)c4)cn3CCN3CCCC3)CC2)c1C1CCC1` [Compound 260]: the IC50 is 21 nM on P70S6K (T412E mutant) and 67 nM on His-AKT (Full Length).
`Nc1ncnc(N2CCC(c3nc(-c4cccc(C(F)(F)F)c4)cn3CCN3CCCC3)CC2)c1C1CCC1` [Compound 261]: the IC50 was determined as 6.3 nM at P70S6K (T412E mutant) and 8.1 nM at His-AKT (Full Length).
For the compound `Nc1ncnc(N2CCC(c3nc(-c4ccc(F)c(Cl)c4)cn3CCN3CCCC3)CC2)c1C1CCC1` [Compound 262], the IC50 at P70S6K (T412E mutant) is 4 nM; on His-AKT (Full Length), 4.9 nM.
For the compound `Nc1ncnc(N2CCC(c3nc(-c4ccc(Cl)cc4)cn3CCN3CCCC3)CC2)c1C1CCC1` [Compound 263], the IC50 turned out to be 25 nM on P70S6K (T412E mutant) and 79 nM at His-AKT (Full Length).
Take `Nc1ncnc(N2CCC(c3nc(-c4cccc(Cl)c4)cn3CCN3CCCC3)CC2)c1C1CCC1` [Compound 264]: the results for the IC50 at P70S6K (T412E mutant) and on His-AKT (Full Length) were 4.1 nM and 6.2 nM, respectively.
Turning to `Nc1ncnc(N2CCC(c3nc(-c4ccc(C(F)(F)F)cc4)cn3CCN3CCCC3)CC2)c1Br` [Compound 265], the IC50 at P70S6K (T412E mutant) is 6.2 nM; at His-AKT (Full Length) it was 110 nM.
For `Nc1ncnc(N2CCC(c3nc(-c4ccc(Cl)c(F)c4)cn3CCN3CCCC3)CC2)c1Br` [Compound 266], the IC50 at P70S6K (T412E mutant) is 3.3 nM; on His-AKT (Full Length), 16 nM.
`Nc1ncnc(N2CCC(c3nc(-c4cccc(C(F)(F)F)c4)cn3CCN3CCCC3)CC2)c1Br` [Compound 267]: the IC50 at P70S6K (T412E mutant) came out at 2.2 nM; on His-AKT (Full Length), 4.2 nM.
Turning to `Nc1ncnc(N2CCC(c3nc(-c4ccc(F)c(Cl)c4)cn3CCN3CCCC3)CC2)c1Br` [Compound 268], the results for the IC50 at P70S6K (T412E mutant) and on His-AKT (Full Length) were 1.4 nM and 1.8 nM, respectively.
In the case of `C=Cc1c(N)ncnc1N1CCC(c2nc(-c3ccc(C(F)(F)F)cc3)cn2CCN2CCCC2)CC1` [Compound 269], the IC50 on P70S6K (T412E mutant) was found to be 10 nM; on His-AKT (Full Length), 190 nM.
`Nc1cc(N2CCC(c3nc(-c4ccc(C(F)(F)F)cc4)cn3CCN3CCCC3)CC2)ncn1` [Compound 270]: the values for the IC50 on P70S6K (T412E mutant) and on His-AKT (Full Length) were 360 nM and 1000 nM, respectively.
The matching figures for `CCc1c(N)ncnc1N1CCC(c2nc(-c3ccc(C(F)(F)F)cc3)cn2CCN2CCCC2)CC1` [Compound 271]: 12 nM and 180 nM.
As to `CCc1c(N)ncnc1N1CCC(c2nc(-c3cccc(C(F)(F)F)c3)cn2CCN2CCCC2)CC1` [Compound 272], the results for the half-inhibitory concentration (IC50) at P70S6K (T412E mutant) and at His-AKT (Full Length) were 3.5 nM and 9.6 nM, respectively.
Regarding `CCc1c(N)ncnc1N1CCC(c2nc(-c3ccc(Cl)cc3)cn2CCN2CCCC2)CC1` [Compound 273], the IC50 was determined as 7.4 nM at P70S6K (T412E mutant) and 190 nM at His-AKT (Full Length).
Consider `CCc1c(N)ncnc1N1CCC(c2nc(-c3cccc(Cl)c3)cn2CCN2CCCC2)CC1` [Compound 274], for which the IC50 worked out at 1.5 nM on P70S6K (T412E mutant) and 12 nM on His-AKT (Full Length).
Consider `CCc1c(N)ncnc1N1CCC(c2nc(-c3ccc(F)c(C(F)(F)F)c3)cn2CCN2CCC(F)(F)C2)CC1` [Compound 275], for which the IC50 on P70S6K (T412E mutant) turned out to be 2.8 nM; on His-AKT (Full Length), 430 nM.
For the compound `CCc1c(N)ncnc1N1CCC(c2nc(-c3ccc(F)c(C(F)(F)F)c3)cn2CCN2CCCCC2)CC1` [Compound 276], the IC50 at P70S6K (T412E mutant) is 2.8 nM; on His-AKT (Full Length), 9.3 nM.
The corresponding values for `CCc1c(N)ncnc1N1CCC(c2nc(-c3cccc(C(F)(F)F)c3)cn2CCN2CCC2)CC1` [Compound 277] are 3.2 nM and 18 nM.
The matching figures for `CCc1c(N)ncnc1N1CCC(c2nc(-c3cccc(F)c3)cn2CCN2CCC2)CC1` [Compound 278]: 4.6 nM and 79.5 nM.
On to `CCc1c(N)ncnc1N1CCC(c2nc(-c3cccc(Cl)c3)cn2CCN2CCC2)CC1` [Compound 279], for which the IC50 on P70S6K (T412E mutant) stood at 2.4 nM; on His-AKT (Full Length) it was 16 nM.
Consider `Nc1ncnc(N2CCC(c3nc(-c4ccc(C(F)(F)F)c(F)c4)cn3CCN3CCC3)CC2)c1C1CCC1` [Compound 280], for which the IC50 on P70S6K (T412E mutant) worked out at 6 nM; at His-AKT (Full Length), 7.3 nM.
As to `CCc1c(N)ncnc1N1CCC(c2nc(-c3ccc(F)c(Cl)c3)cn2CCN2CCC2)CC1` [Compound 281], the IC50 at P70S6K (T412E mutant) was determined as 3.9 nM; on His-AKT (Full Length) it was 9.2 nM.
Consider `CCc1c(N)ncnc1N1CCC(c2nc(-c3ccc(F)c(F)c3)cn2CCN2CCC2)CC1` [Compound 282], for which the IC50 turned out to be 3.8 nM on P70S6K (T412E mutant) and 24 nM at His-AKT (Full Length).
The matching figures for `Nc1ncnc(N2CCC(c3nc(-c4ccc(F)c(C(F)(F)F)c4)cn3CCN3CCC3)CC2)c1[N+](=O)[O-]` [Compound 283]: 1.4 nM and 2.7 nM.
In the case of `Nc1ncnc(N2CCC(c3nc(-c4ccc(F)c(C(F)(F)F)c4)cn3CCN3CCC3)CC2)c1N` [Compound 284], the IC50 on P70S6K (T412E mutant) was 10.6 nM; on His-AKT (Full Length), 51.5 nM.
For `Nc1ncnc(N2CCC(c3nc(-c4ccc(F)c(C(F)(F)F)c4)cn3CCN3CCC3)CC2)c1C=O` [Compound 285], the IC50 on P70S6K (T412E mutant) is 1 nM; on His-AKT (Full Length) it was 1.4 nM.
In the case of `Nc1ncnc(N2CCC(c3nc(-c4ccc(F)c(C(F)(F)F)c4)cn3CCN3CCCC3)CC2)c1C(=O)O` [Compound 286], the IC50 at P70S6K (T412E mutant) was 135 nM; on His-AKT (Full Length), 730 nM.
For `Nc1ncnc(N2CCC(c3nc(-c4ccc(F)c(C(F)(F)F)c4)cn3CCN3CCCC3)CC2)c1C=O` [Compound 287], the IC50 at P70S6K (T412E mutant) came to 0.6 nM; at His-AKT (Full Length) it was 1 nM.
Take `CC(=O)Nc1c(N)ncnc1N1CCC(c2nc(-c3ccc(F)c(C(F)(F)F)c3)cn2CCN2CCC2)CC1` [Compound 288]: the IC50 on P70S6K (T412E mutant) was determined as 21 nM; on His-AKT (Full Length), 190 nM.
The matching figures for `CC(C)Oc1c(N)ncnc1N1CCC(c2nc(-c3ccc(F)c(Cl)c3)cn2CCN2CCCC2)CC1` [Compound 290]: 1.3 nM and 2 nM.
The matching figures for `CCOc1c(N)ncnc1N1CCC(c2nc(-c3ccc(F)c(C(F)(F)F)c3)cn2CCN(C)C)CC1` [Compound 291]: 2.6 nM and 8 nM.
Consider `CC(C)Oc1c(N)ncnc1N1CCC(c2nc(-c3ccc(F)c(C(F)(F)F)c3)cn2CCN(C)C)CC1` [Compound 292], for which the IC50 turned out to be 3.4 nM on P70S6K (T412E mutant) and 7.6 nM on His-AKT (Full Length).
The matching figures for `CCOc1c(N)ncnc1N1CCC(c2nc(-c3ccc(F)c(C)c3)cn2CCN(C)C)CC1` [Compound 293]: 1 nM and 1.7 nM.
For the compound `Cc1cc(-c2cn(CCN(C)C)c(C3CCN(c4ncnc(N)c4OC(C)C)CC3)n2)ccc1F` [Compound 294], the figures for the IC50 at P70S6K (T412E mutant) and on His-AKT (Full Length) were 1.3 nM and 1.9 nM, respectively.
The corresponding values for `CCc1c(N)ncnc1N1CCC(c2nc(-c3ccc(F)c(C)c3)cn2CCN(C)C)CC1` [Compound 295] are 4.1 nM and 23 nM.
For the compound `CCc1c(N)ncnc1N1CCC(c2nc(-c3ccc(F)c(C)c3)cn2CCN(CC)CC)CC1` [Compound 296], the figures for the IC50 at P70S6K (T412E mutant) and on His-AKT (Full Length) were 1.6 nM and 2.6 nM, respectively.
For `CCc1c(N)ncnc1N1CCC(c2nc(-c3ccc(F)c(C)c3)cn2CCN2CCCC2)CC1` [Compound 297], the concentration for half-maximal inhibition (IC50) on P70S6K (T412E mutant) worked out at 3.9 nM; on His-AKT (Full Length), 6.6 nM.
